Measured values as given in PubChem BioAssay (NCI).
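Dose response: 5 concentrations. Exposure: 48 h. Format: 96-well plates. Endpoint: linear interpolation; highest concentration if not reached. The concentration for 50% growth inhibition is given as GI50. TGI denotes the concentration required for complete inhibition of growth.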

How the values were obtained:
Test in all cases: inhibition of tumour cell growth, NCI panel, 48 h
786-0 renal = system: 786-0 renal
A549 NSCLC = system: A549 NSCLC
ACHN renal = system: ACHN renal
BT-549 breast = system: BT-549 breast
COLO 205 colon = system: COLO 205 colon
DU-145 prostate = system: DU-145 prostate
HCC-2998 colon = system: HCC-2998 colon
HCT-116 colon = system: HCT-116 colon
HCT-15 colon = system: HCT-15 colon
HL-60(TB) leukemia = system: HL-60(TB) leukemia
HOP-62 NSCLC = system: HOP-62 NSCLC
HS 578T breast = system: HS 578T breast
HT29 colon = system: HT29 colon
IGROV1 ovarian = system: IGROV1 ovarian
K-562 leukemia = system: K-562 leukemia
LOX IMVI melanoma = system: LOX IMVI melanoma
M14 melanoma = system: M14 melanoma
MALME-3M melanoma = system: MALME-3M melanoma
MCF7 breast = system: MCF7 breast
MDA-MB-231 breast = system: MDA-MB-231 breast
MDA-MB-435 = system: MDA-MB-435
MOLT-4 leukemia = system: MOLT-4 leukemia
NCI-H226 lung = system: NCI-H226 lung
NCI-H23 lung = system: NCI-H23 lung
NCI-H460 lung = system: NCI-H460 lung
NCI-H522 lung = system: NCI-H522 lung
NCI/ADR-RES ovarian = system: NCI/ADR-RES ovarian
OVCAR-4 ovarian = system: OVCAR-4 ovarian
OVCAR-5 ovarian = system: OVCAR-5 ovarian
PC-3 prostate = system: PC-3 prostate
RPMI-8226 leukemia = system: RPMI-8226 leukemia
RXF 393 renal = system: RXF 393 renal
SF-539 CNS = system: SF-539 CNS
SK-MEL-2 melanoma = system: SK-MEL-2 melanoma
SK-MEL-28 melanoma = system: SK-MEL-28 melanoma
SK-MEL-5 melanoma = system: SK-MEL-5 melanoma
SK-OV-3 ovarian = system: SK-OV-3 ovarian
SN12C renal = system: SN12C renal
SNB-75 CNS = system: SNB-75 CNS
SR leukemia = system: SR leukemia
SW-620 colon = system: SW-620 colon
T-47D breast = system: T-47D breast
TK-10 renal = system: TK-10 renal
U251 CNS = system: U251 CNS
UO-31 renal = system: UO-31 renal
A498 renal = system: A498 renal
CAKI-1 renal = system: CAKI-1 renal
EKVX NSCLC = system: EKVX NSCLC
KM12 colon = system: KM12 colon
OVCAR-3 ovarian = system: OVCAR-3 ovarian
OVCAR-8 ovarian = system: OVCAR-8 ovarian
SF-268 CNS = system: SF-268 CNS
SF-295 CNS = system: SF-295 CNS
SNB-19 CNS = system: SNB-19 CNS
UACC-257 melanoma = system: UACC-257 melanoma
UACC-62 melanoma = system: UACC-62 melanoma

What does the source list for `CC(=O)Oc1ccccc1C(=O)N=C1[Se]CCCN1C(=O)c1ccccc1OC(C)=O`?
GI50 (786-0 renal): 2.14 µM; TGI (786-0 renal): 4.21 µM; GI50 (A549 NSCLC): 1.85 µM; TGI (A549 NSCLC): 3.69 µM; GI50 (ACHN renal): 2.3 µM; TGI (ACHN renal): 4.79 µM; GI50 (BT-549 breast): 2.29 µM; TGI (BT-549 breast): 6.66 µM; GI50 (COLO 205 colon): 3.08 µM; TGI (COLO 205 colon): 10.1 µM; GI50 (DU-145 prostate): 1.82 µM; TGI (DU-145 prostate): 3.26 µM; GI50 (HCC-2998 colon): 3.42 µM; TGI (HCC-2998 colon): 15.6 µM; GI50 (HCT-116 colon): 2.1 µM; TGI (HCT-116 colon): 5.95 µM; GI50 (HCT-15 colon): 2.53 µM; TGI (HCT-15 colon): 7.28 µM; GI50 (HL-60(TB) leukemia): 2.14 µM; TGI (HL-60(TB) leukemia): 5.63 µM; GI50 (HOP-62 NSCLC): 1.61 µM; TGI (HOP-62 NSCLC): 3.01 µM; GI50 (HS 578T breast): 2.07 µM; TGI (HS 578T breast): 6.32 µM; GI50 (HT29 colon): 3.15 µM; TGI (HT29 colon): 8.73 µM; GI50 (IGROV1 ovarian): 2.83 µM; TGI (IGROV1 ovarian): 11.6 µM; GI50 (K-562 leukemia): 3.32 µM; TGI (K-562 leukemia): 12.6 µM; GI50 (LOX IMVI melanoma): 1.7 µM; TGI (LOX IMVI melanoma): 4.37 µM; GI50 (M14 melanoma): 1.86 µM; TGI (M14 melanoma): 4.68 µM; GI50 (MALME-3M melanoma): 2.31 µM; TGI (MALME-3M melanoma): 4.9 µM; GI50 (MCF7 breast): 2.79 µM; TGI (MCF7 breast): 10.8 µM; GI50 (MDA-MB-231 breast): 2.22 µM; TGI (MDA-MB-231 breast): 5.02 µM; GI50 (MDA-MB-435): 1.98 µM; TGI (MDA-MB-435): 4.76 µM; GI50 (MOLT-4 leukemia): 1.92 µM; TGI (MOLT-4 leukemia): 4.96 µM; GI50 (NCI-H226 lung): 2.01 µM; TGI (NCI-H226 lung): 4.74 µM; GI50 (NCI-H23 lung): 2.72 µM; TGI (NCI-H23 lung): 7.78 µM; GI50 (NCI-H460 lung): 2 µM; TGI (NCI-H460 lung): 5.5 µM; GI50 (NCI-H522 lung): 1.59 µM; TGI (NCI-H522 lung): 3.42 µM; GI50 (NCI/ADR-RES ovarian): 2.92 µM; TGI (NCI/ADR-RES ovarian): 8.09 µM; GI50 (OVCAR-4 ovarian): 1.93 µM; TGI (OVCAR-4 ovarian): 5.57 µM; GI50 (OVCAR-5 ovarian): 3.25 µM; TGI (OVCAR-5 ovarian): 8.66 µM; GI50 (PC-3 prostate): 2.34 µM; TGI (PC-3 prostate): 7.24 µM; GI50 (RPMI-8226 leukemia): 2.42 µM; TGI (RPMI-8226 leukemia): 6.13 µM; GI50 (RXF 393 renal): 2.48 µM; TGI (RXF 393 renal): 6.92 µM; GI50 (SF-539 CNS): 2.66 µM; TGI (SF-539 CNS): 6.28 µM; GI50 (SK-MEL-2 melanoma): 2.38 µM; TGI (SK-MEL-2 melanoma): 5.09 µM; GI50 (SK-MEL-28 melanoma): 2.36 µM; TGI (SK-MEL-28 melanoma): 5.74 µM; GI50 (SK-MEL-5 melanoma): 2.01 µM; TGI (SK-MEL-5 melanoma): 4.13 µM; GI50 (SK-OV-3 ovarian): 3.4 µM; TGI (SK-OV-3 ovarian): 6.16 µM; GI50 (SN12C renal): 4.12 µM; TGI (SN12C renal): 24.7 µM; GI50 (SNB-75 CNS): 2.01 µM; TGI (SNB-75 CNS): 4.69 µM; GI50 (SR leukemia): 2.44 µM; TGI (SR leukemia): 9.17 µM; GI50 (SW-620 colon): 3.58 µM; TGI (SW-620 colon): 11.4 µM; GI50 (T-47D breast): 3.44 µM; TGI (T-47D breast): 13.5 µM; GI50 (TK-10 renal): 1.87 µM; TGI (TK-10 renal): 3.81 µM; GI50 (U251 CNS): 1.64 µM; TGI (U251 CNS): 3 µM; GI50 (UO-31 renal): 1.33 µM; TGI (UO-31 renal): 4.25 µM

What does the source list for `CC(=O)Oc1ccc(Nc2c3ccccc3nc3ccccc23)cc1`?
GI50 (786-0 renal): 1.89 µM; TGI (786-0 renal): 6.4 µM; GI50 (A498 renal): 0.322 µM; TGI (A498 renal): 1.88 µM; GI50 (A549 NSCLC): 0.365 µM; TGI (A549 NSCLC): 1.87 µM; GI50 (ACHN renal): 0.382 µM; TGI (ACHN renal): 2.02 µM; GI50 (BT-549 breast): 2.77 µM; TGI (BT-549 breast): 13.5 µM; GI50 (CAKI-1 renal): 1.21 µM; TGI (CAKI-1 renal): 12.7 µM; GI50 (COLO 205 colon): 0.861 µM; TGI (COLO 205 colon): 2.33 µM; GI50 (DU-145 prostate): 0.536 µM; TGI (DU-145 prostate): 3 µM; GI50 (EKVX NSCLC): 3.05 µM; TGI (EKVX NSCLC): 25.3 µM; GI50 (HCC-2998 colon): 1.97 µM; TGI (HCC-2998 colon): 14.3 µM; GI50 (HCT-116 colon): 0.613 µM; TGI (HCT-116 colon): 4.11 µM; GI50 (HCT-15 colon): 1.13 µM; TGI (HCT-15 colon): 3.4 µM; GI50 (HL-60(TB) leukemia): 0.705 µM; TGI (HL-60(TB) leukemia): 6.14 µM; GI50 (HOP-62 NSCLC): 0.971 µM; TGI (HOP-62 NSCLC): 3.48 µM; GI50 (HS 578T breast): 0.435 µM; TGI (HS 578T breast): 3.19 µM; GI50 (HT29 colon): 1.1 µM; TGI (HT29 colon): 3.53 µM; GI50 (IGROV1 ovarian): 1.15 µM; TGI (IGROV1 ovarian): 6.98 µM; GI50 (K-562 leukemia): 1.45 µM; TGI (K-562 leukemia): > 100 µM; GI50 (KM12 colon): 1.88 µM; TGI (KM12 colon): 10.5 µM; GI50 (LOX IMVI melanoma): 0.736 µM; TGI (LOX IMVI melanoma): 2.03 µM; GI50 (M14 melanoma): 1.46 µM; TGI (M14 melanoma): 3.7 µM; GI50 (MALME-3M melanoma): 1.31 µM; TGI (MALME-3M melanoma): 5.35 µM; GI50 (MCF7 breast): 0.476 µM; TGI (MCF7 breast): 10.1 µM; GI50 (MDA-MB-231 breast): 1.7 µM; TGI (MDA-MB-231 breast): 6.23 µM; GI50 (MDA-MB-435): 2.17 µM; TGI (MDA-MB-435): 8.16 µM; GI50 (MOLT-4 leukemia): 0.321 µM; TGI (MOLT-4 leukemia): > 100 µM; GI50 (NCI-H226 lung): 0.675 µM; TGI (NCI-H226 lung): 3.08 µM; GI50 (NCI-H23 lung): 1.17 µM; TGI (NCI-H23 lung): 2.98 µM; GI50 (NCI-H460 lung): 0.295 µM; TGI (NCI-H460 lung): 1.3 µM; GI50 (NCI/ADR-RES ovarian): 2.25 µM; TGI (NCI/ADR-RES ovarian): 12.1 µM; GI50 (OVCAR-3 ovarian): 2.14 µM; TGI (OVCAR-3 ovarian): 6.48 µM; GI50 (OVCAR-4 ovarian): 1.74 µM; TGI (OVCAR-4 ovarian): 5.93 µM; GI50 (OVCAR-5 ovarian): 2.08 µM; TGI (OVCAR-5 ovarian): 6.75 µM; GI50 (OVCAR-8 ovarian): 1.07 µM; TGI (OVCAR-8 ovarian): 4.14 µM; GI50 (PC-3 prostate): 2.12 µM; TGI (PC-3 prostate): 13.3 µM; GI50 (RPMI-8226 leukemia): 2.25 µM; TGI (RPMI-8226 leukemia): 23.7 µM; GI50 (RXF 393 renal): 1.08 µM; TGI (RXF 393 renal): 2.93 µM; GI50 (SF-268 CNS): 1.86 µM; TGI (SF-268 CNS): 12.4 µM; GI50 (SF-295 CNS): 0.914 µM; TGI (SF-295 CNS): 7.94 µM; GI50 (SF-539 CNS): 1.63 µM; TGI (SF-539 CNS): 6.24 µM; GI50 (SK-MEL-2 melanoma): 1.8 µM; TGI (SK-MEL-2 melanoma): 3.79 µM; GI50 (SK-MEL-28 melanoma): 1.58 µM; TGI (SK-MEL-28 melanoma): 3.92 µM; GI50 (SK-MEL-5 melanoma): 0.984 µM; TGI (SK-MEL-5 melanoma): 2.15 µM; GI50 (SK-OV-3 ovarian): 1.47 µM; TGI (SK-OV-3 ovarian): 5.91 µM; GI50 (SN12C renal): 1.42 µM; TGI (SN12C renal): 10.3 µM; GI50 (SNB-19 CNS): 1.86 µM; TGI (SNB-19 CNS): 11.9 µM; GI50 (SNB-75 CNS): 0.544 µM; TGI (SNB-75 CNS): 5.08 µM; GI50 (SR leukemia): 0.355 µM; TGI (SR leukemia): > 100 µM; GI50 (SW-620 colon): 0.747 µM; TGI (SW-620 colon): 2.58 µM; GI50 (T-47D breast): 1.72 µM; TGI (T-47D breast): 7.23 µM; GI50 (TK-10 renal): 1.68 µM; TGI (TK-10 renal): 6.22 µM; GI50 (U251 CNS): 1.55 µM; TGI (U251 CNS): 8.85 µM; GI50 (UACC-257 melanoma): 1.51 µM; TGI (UACC-257 melanoma): 4.31 µM; GI50 (UACC-62 melanoma): 1.1 µM; TGI (UACC-62 melanoma): 2.61 µM; GI50 (UO-31 renal): 0.693 µM; TGI (UO-31 renal): 2.59 µM
